# Measurements published in EP0961591B1, “METHOD TO ENHANCE TISSUE AC[…] RADIOLABELED COMPOUNDS” (BOARD OF SUPERVISORS OF LOUISIANA STATE UNIVERSITY AND …, priority 1997, dated 1999).
# Read-outs that look alike come from different tables or passages of the source.
# Key:
# SKNSH = assay: Peptide binding and internalization assay; set-up: species or system human
# From the text: The cells included: (1) IMR-32 (ATCC No. CCL-127), a human neuroblastoma cell line with a very high expression level of somatostatin receptors (SST), predominantly SST-2; (2) SKNSH (ATCC No. HTB-11), a human neuroblastoma bone marrow metastatic cell that lacks somatostatin receptors as defined by either a binding assay or reverse transcriptase-polymerase chain reaction (RTPCR); and (3) SK-R2, a SKNSH-derived cell line transfected with the gene for the SST-2 receptor. The IMR-32 and the SK-R2 cells express somatostatin receptors type 2 (SST-2). […] Cell lines were obtained from the ATCC (IMR-32 and SKNSH) or from Ohio State University (Columbus, Ohio) (SK-R2). All cells lines were maintained in 5% CO2 at 37°C in media defined by the suppliers of the cell lines.
# Cells were harvested, counted with a hemocytometer, and resuspended in binding buffer (Minimum Essential Medium (MEM), 10 mM Hepes, 0.01% BSA). A standard assay used 500,000 cells in 1 ml of binding buffer. Radioactive ligand alone (500,000 cpm), or in combination with at least 1,000-fold molar excess (10^-6 M) non-radioactive compound (to calculate specific binding), was added to a final volume of 1 ml. At the termination of the experiment, the incubation medium was removed, the cells were rinsed twice with Hanks balanced salt solution (HBSS), and the radioactivity in the cells determined using a gamma counter. This level of radioactivity represents total binding, which includes both membrane-bound and internalized fractions. Specific binding was determined by calculating the difference in the levels of measured radioactivity without the unlabeled competitor minus the radioactivity with the unlabeled competitor.
# To differentiate between membrane and intracellular binding, cells were subsequently incubated for 10 min at 4°C with acidified HBSS (pH=4-5), rinsed in HBSS, and the radioactivity again determined using the gamma counter. Since the acid wash preferentially released the radioactive ligand from the external surface of the cell, remaining radioactivity was attributed to internalized fractions. Membrane-associated binding was then calculated as the difference between the total binding and internalized fractions.
# The assay methods were as described in Example 2.
# [1] = test system: neuroendocrine cancers expressing the somatostatin receptor; assay: Pilot clinical trial of monthly 180 mCi doses; type: in vivo, human; conditions: ten patients
# Protocol: For six months, pilot clinical trials were conducted in ten human patients with progressive metastatic indolent and symptomatic neuroendocrine cancers expressing the somatostatin receptor. […] The first monthly dose was a bolus injection of 180 mCi. The second monthly dose was infusion of 180 mCi over 72 hr. The third monthly dose was infusion of 180 mCi over 24 hr. Thereafter, all monthly doses were infusion of 180 mCi over 24 hr. Clinical benefits (as evidenced by reduced pain, weight gain, reduced malaise, etc.) occurred in 6 of the 10 neuroendocrine (carcinoid/islet cell) patients. Partial radiographic responses (greater than 50% reduction in the product of perpendicular tumor diameters) occurred in 2 patients, and significant tumor necrosis developed in 7 of the 10 neuroendocrine patients. Treatment-related toxicity included 2 Grade III platelet, 1 Grade II WBC, 1 Grade I WBC and 2 Grade I Hb on the NCI (National Cancer Institute) grading scale.
# [2] = test system: human angiogenic vascular tissue; assay: Human Placental Vein Angiogenesis Model; type: cell-based; conditions: 50 µCi/mL (or equivalent amounts), 14 days
# From the text: Watson et al., "Up-Regulation of Somatostatin Receptor Subtype 2 (SST-2) mRNA Occurs During the Transformation of Human Endothelium to the Angiogenic Phenotype," Paper Presented at the 12th International Symposium on Regulatory Peptides, Copenhagen, Denmark, September 1996; J.C. Watson et al., "SST-2 Gene Expression Appears During Human Angiogenesis," Regulatory Peptides, vol. 64, p. 206 (Abstract) (1996); and J.C. Watson et al., "Breast Cancer Increases Initiation of Angiogenesis Without Accelerating Neovessel Growth Rate," Surgery, vol. 122, pp. 508-14 (1997). Human placental veins were cut into discs of 2 mm diameter and were incorporated into a 0.3% fibrinogen gel. This gel was then overlaid with tissue culture media containing 10-20 % fetal calf serum (FCS). Under normal conditions, endothelial cords will begin to sprout from the transected cut edge of the vein discs within six days.
# These vein discs were placed into wells of three separate culture plates. One culture plate, the control sample, was allowed to grow without treatment. […] The discs were then incubated for fourteen days. […]
# Using a digital image analyzer, the mean area of the sprouting tissue surrounding the discs was measured.
# To measure the growth rate of angiogenic vascular tissue, every two days during the 14-day incubation period, the length of sprouts were measured. […]
# [3] = test system: tumor in the left side of the neck
# Protocol: During and after each administration of the last eight doses, a tumor in the left side of the neck was monitored for radioligand uptake with an ion chamber survey meter, a Victoreen 450P ion chamber, which measures external gamma dose rates. Administration of the initial seven doses were by bolus injection. The last three doses were delivered by infusion with various activities of radioligand.
# The external gamma dose rates from radioligand accumulation in the neck tumor area were measured immediately and 24 hr after injection.
# Four months after the final bolus dose, the first dose by infusion ("Infusion 1") was administered. A dose equivalent to the previous bolus dose (175.9 mCi) was given, but the radioligand was administered by infusion over 72 hr at a constant rate of 2.5 mCi/hr.
# One month later, in "Infusion 2," the total dose was increased to 389.2 mCi. By infusion, 189.8 mCi of the radioligand was given over the first 24 hr, 108.6 mCi over the second 24 hr, and 90.8 mCi over the third 24 hr. For each 24 hr period, the infusion rate was kept constant.
# One month later, a third dose was administered by infusion ("Infusion 3"). A dose of 301 mCi was infused the first 24 hr period. In two subsequent 24 hr periods, 25 and 21 mCi were infused.
# [4] = NCI grading scale, monthly 180 mCi doses
substance,measurement,setting,value
(^111In-DTPA-D-Phe^1)-octreotide [^111In-pentetreotide],"Total Binding (CPM ± SD), MEMBRANE",SKNSH; 1 CPM/cell,87 ± 114 CPM
same,"Total Binding (CPM ± SD), TOTAL",SKNSH; 1 CPM/cell,861 ± 30 CPM
same,"Total Binding (CPM ± SD), INTRACELLULAR","SKNSH; 1 CPM/cell, after acid wash",775 ± 107 CPM
same,"Specific Binding (CPM), INTRACELLULAR",SKNSH; competitor octreotide acetate,0 CPM
same,"Specific Binding (CPM), MEMBRANE",SKNSH; competitor octreotide acetate,0 CPM
same,Treatment-related toxicity: Grade I Hb,[1]; [4],2
same,Treatment-related toxicity: Grade I WBC,[1]; [4],1
same,Treatment-related toxicity: Grade II WBC,[1]; [4],1
same,Treatment-related toxicity: Grade III platelet,[1]; [4],2
same,"Clinical benefits (reduced pain, weight gain, reduced malaise, etc.)","[1]; monthly 180 mCi doses (bolus, then infusion over 72 hr, then 24 hr)",6 of the 10
same,Partial radiographic responses (greater than 50% reduction in the product of perpendicular tumor diameters),[1]; monthly 180 mCi doses,2 patients
same,significant tumor necrosis,[1]; monthly 180 mCi doses,7 of the 10
same,% initiation of angiogenic growth,[2],lowest % initiation
same,vessel area,[2]; digital image analyzer,the least area of new growth
same,infusion ratio relative to the bolus ratio,[3]; Infusion 1,3 fold
same,infusion ratio relative to the bolus ratio,[3]; Infusion 2,4 fold
same,infusion ratio relative to the bolus ratio,[3]; Infusion 3,5 fold
same,highest ratio relative to the highest ratio from the bolus injection,"[3]; Infusion Dose 1, after the first 24 hr infusion",almost five times higher
same,tumor foci identifiable by gamma scintigraphy,"[3]; Infusion Dose 3, gamma camera scintigraphy",still identifiable by gamma scintigraphy thirteen days after completion of the last infusion dose
